Test results reported in ChEMBL document CHEMBL1201862, “PubChem BioAssay data set” (2004).
Calls of active or inactive are those of the source.

Key:
[1] = blockers of HIV-1 ZM109 envelope-driven cell-cell fusion – HeLa effector, CEM target cells, luciferase, cherry-pick, dose response (AID 652058); assay type: functional, cell-based;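 also: luciferase signal from HIV-1 Env mediated cell-cell fusion of effector and target cells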
[2] = blockers of HIV-1 envelope-mediated cell-cell fusion – cherry-pick, dose response (AID 652057); assay type: functional, cell-based
[3] = HIV-1 AD8 envelope cell-cell fusion blockers – cherry-pick, dose response (AID 652062); assay type: functional, cell-based;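 also: luciferase signal from cell-cell fusion driven by HIV-1 clade B AD8 Env; potency is for inhibitors of fusion seen as a drop in luminescence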
[4] = HEK-293T viability loss after treatment – luminescence, T-cell screen hits, cytotoxicity control for TCR NF-kB inhibitor project, dose response (AID 489026); assay type: functional, cell-based;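 also: cells exposed to compound about 14 hours before the viability readout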
[5] = decrease of insulin promoter-GFP reporter – imaging, high-content screening, mouse beta cells (AID 1628); assay type: functional; settings: MIN6
[6] = MIN6 cell viability loss – mouse insulinoma, cytotoxicity control, dose response (AID 2122); assay type: functional;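 also: confirmatory high-throughput counterscreen run to flag cytotoxic compounds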
[7] = system: Vero; test: cells; assay type: functional; settings: Chlorocebus sabaeus
[8] = system: Vero; test: cells; assay type: functional, cell-based; settings: Chlorocebus sabaeus
[9] = target: T1, Dual specificity protein phosphatase 6 (Rattus norvegicus, UniProt Q64346)
T1 sequence (Q64346 whole entry): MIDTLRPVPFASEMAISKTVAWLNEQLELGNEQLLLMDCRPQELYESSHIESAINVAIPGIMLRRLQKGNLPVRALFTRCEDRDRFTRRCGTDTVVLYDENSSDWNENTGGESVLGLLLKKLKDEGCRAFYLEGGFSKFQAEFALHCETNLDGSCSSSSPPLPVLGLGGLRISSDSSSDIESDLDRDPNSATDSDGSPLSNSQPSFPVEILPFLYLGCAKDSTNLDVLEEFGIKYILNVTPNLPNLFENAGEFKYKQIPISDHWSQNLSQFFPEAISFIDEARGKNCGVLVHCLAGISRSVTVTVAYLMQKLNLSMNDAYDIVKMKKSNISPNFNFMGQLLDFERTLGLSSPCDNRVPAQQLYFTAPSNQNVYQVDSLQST

[10] = target: T2, Tyrosine-protein phosphatase non-receptor type 7 (Homo sapiens, UniProt P35236); assay type: functional
T2 sequence (P35236 whole entry): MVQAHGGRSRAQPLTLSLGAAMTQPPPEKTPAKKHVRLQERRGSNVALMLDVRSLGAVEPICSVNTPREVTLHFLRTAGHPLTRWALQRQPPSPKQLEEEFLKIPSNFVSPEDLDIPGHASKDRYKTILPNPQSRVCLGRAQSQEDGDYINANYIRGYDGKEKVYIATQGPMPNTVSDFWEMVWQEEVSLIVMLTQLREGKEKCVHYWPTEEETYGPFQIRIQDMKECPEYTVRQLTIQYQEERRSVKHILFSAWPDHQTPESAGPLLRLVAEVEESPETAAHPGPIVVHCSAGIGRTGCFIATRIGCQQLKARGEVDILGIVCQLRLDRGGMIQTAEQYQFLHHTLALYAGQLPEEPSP

[11] = target: Glyceraldehyde-3-phosphate dehydrogenase (Homo sapiens, UniProt P04406)
[12] = target: T1, Dual specificity protein phosphatase 6; assay type: functional
[13] = system: BJ; test: BJ-TERT fibroblast viability loss – cell-based, RAS-independent, luminescence, dose response (AID 1933); assay type: functional; settings: Homo sapiens
[14] = system: BJ; test: BJ-TERT-LT-ST fibroblast viability loss – cell-based, RAS-independent, luminescence, dose response (AID 1935); assay type: functional; settings: Homo sapiens;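 also: BJ fibroblasts immortalized with TERT plus LT and ST oncogenes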
[15] = system: BJ; test: cells; assay type: functional, cell-based; settings: Homo sapiens
[16] = DRD fibroblast viability loss – cell-based, non-viral oncogenic, luminescence, dose response (AID 1934); assay type: functional; settings: Homo sapiens
[17] = Luminescence Cell-Based Dose Confirmation HTS to Identify Inhibitors of Platelet Dense Granule Release. [Related pubchem assays: 1663 (Primary HTS), 1678 (Summary of Project)]; assay type: functional
[18] = target: Luciferin 4-monooxygenase (Photinus pyralis, UniProt P08659); test: inhibition of purified Photinus pyralis luciferase – biochemical, luminescence, dose response (AID 1891)
Chain of Luciferin 4-monooxygenase (P08659 whole entry): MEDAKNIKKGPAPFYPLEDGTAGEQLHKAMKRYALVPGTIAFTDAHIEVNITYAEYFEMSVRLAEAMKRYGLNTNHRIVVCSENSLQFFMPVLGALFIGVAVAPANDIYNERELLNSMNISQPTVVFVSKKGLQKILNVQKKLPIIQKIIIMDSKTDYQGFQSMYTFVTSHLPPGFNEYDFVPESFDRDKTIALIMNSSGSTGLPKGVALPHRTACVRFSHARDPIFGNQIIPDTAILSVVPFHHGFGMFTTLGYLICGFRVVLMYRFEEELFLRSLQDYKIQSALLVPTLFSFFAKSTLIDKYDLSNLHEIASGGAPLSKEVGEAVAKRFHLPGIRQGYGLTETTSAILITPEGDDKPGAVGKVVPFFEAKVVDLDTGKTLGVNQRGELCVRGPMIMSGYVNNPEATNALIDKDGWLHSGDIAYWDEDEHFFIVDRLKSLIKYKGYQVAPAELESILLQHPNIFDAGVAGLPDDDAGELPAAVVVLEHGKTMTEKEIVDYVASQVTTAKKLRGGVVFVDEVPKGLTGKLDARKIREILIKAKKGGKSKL

Chain of Glyceraldehyde-3-phosphate dehydrogenase (P04406 whole entry): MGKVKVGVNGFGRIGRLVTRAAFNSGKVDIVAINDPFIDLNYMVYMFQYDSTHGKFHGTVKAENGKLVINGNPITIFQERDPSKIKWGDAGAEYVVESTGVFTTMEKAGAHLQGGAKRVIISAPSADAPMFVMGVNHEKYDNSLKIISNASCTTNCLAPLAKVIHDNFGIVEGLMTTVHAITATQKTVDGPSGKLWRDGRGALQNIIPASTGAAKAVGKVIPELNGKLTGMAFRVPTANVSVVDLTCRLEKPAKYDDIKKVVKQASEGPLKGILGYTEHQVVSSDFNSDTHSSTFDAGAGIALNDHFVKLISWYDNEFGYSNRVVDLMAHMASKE

Clc1ccc2c(c1)C(C1=NCCN1)c1ccccc1CS2 (centres undefined)
AC50 [1]: 2.07 µM (active)
AC50 [2]: 1.48 µM (active)
AC50 [3]: 4.39 µM (active)
IC50 [4]: > 80 µM (inactive)

Cc1ccc(-n2ncc3c(SCc4cccnc4)ncnc32)c(C)c1
IC50 [5]: 1.77 µM (active)
IC50 [6]: 1.09 µM (active)
CC50 [7]: 20.9 µM (active)
IC50 [8]: 21.8 µM (active)

CCCn1c(=O)nc(NCc2ccccc2OC)[nH]c1=O
IC50 [9]: > 100 µM (inactive)
IC50 [10]: > 100 µM (not active)
IC50 [11]: > 100 µM (not active)
IC50 [12]: > 100 µM (inactive)

Cc1ccc(S(=O)(=O)Cc2ccc(C(=O)N3CCN(c4cccc(C)c4C)CC3)o2)cc1
EC50 [13]: 8.13 µM (inconclusive)
EC50 [14]: 4.2 µM (active)
EC50 [15]: 18 µM (active)
EC50 [16]: 13.3 µM (inconclusive)
EC50 [17]: > 112 µM (not active)
EC50 [18]: 57.2 µM (active)
IC50 [4]: > 80 µM (inactive)
